# Test results: patent publication US4983633A, “Amide compounds, process for preparing the same, and composition for activating gastric motor function containing the same” (Hokuriku Pharmaceutical Co., Ltd., priority 1987, dated 1991)
# Several values for one entry are separate records, joined by “and”; a condition that tells them apart may be missing. Equal entries are not always repeated. Structures can show the parent of a compound that is named as a salt.
# What was measured:
# [1] = Acute toxicological study in mice (up and down method); details: mouse, in vivo; intravenous, male ICR mice aged 5 weeks
# Description: Acute toxicological study in mice
# Male ICR mice aged 5 weeks were used for each determination. The test compounds (2-4 different doses) were intravenously administered and LD50 values were calculated using the up and down method. Results were as follows (Table 3).
# [2] = test system: dopamine-induced suppression of gastrointestinal transit; test: Improving effects on dopamine-induced suppression of gastrointestinal transit in mice (charcoal meal); assay type: in vivo, mice (male ddY); details: for Improvement (%) / Gastrointestinal transit (% ± S.E.): test compound 30 mg/kg p.o. + dopamine 2 mg/kg i.p.; for Gastrointestinal transit (% ± S.E.): 20 min after charcoal meal; for improvement of gastrointestinal transit inhibited by dopamine (in words): 30 mg/kg p.o.
# Description: Improving effects of the test compound on dopamine-induced suppression of gastrointestinal transit in mice
# Male mice of the ddY strain weighing about 22 g were fasted overnight and the test compounds (suspended in 0.5% carboxymethylcellulose) were administered orally. Thirty minutes later dopamine (2 mg/kg dissolved in saline) or saline only was administered intraperitoneally followed immediately by the oral administration of charcoal meal (5% charcoal powder suspended in 10% gum arabic). Twenty minutes later the animals were sacrificed and the digestive tracts were isolated from the stomach to the cecum. The gastrointestinal transit was determined by calculating the total intestinal length between the pylorus and the cecum and the length over which charcoal meal was carried from the pylorus. Statistical analysis was carried out by Student's t-test for unpaired observations.
# [3] = test system: apomorphine-induced emesis; test: Suppressing effects on apomorphine-induced emesis in beagle dogs; assay type: in vivo, beagle dogs (male); details: apomorphine s.c., observed for sixty minutes
# Description: Suppressing effects of the test compounds on apomorphine-induced emesis in beagle dogs
# Male beagle dogs weighing about 8 kg were fasted overnight. The test compounds (suspended or dissolved in 0.5% CMC) were administered orally and the dogs fed fortyfive minutes later.
# [4] = test system: isolated guinea pig ileum; test: Contractile effects of the test compounds in isolated guinea pig ileum; design: species or system guinea pig (male Hartley); details: for EC50: Cavia porcellus, isolated ileum strips, 37° C, relative to 10^-6 M acetylcholine-induced contraction, read-out: ED50 (dose which evoked 50% of the acetylcholine-induced contraction)
# Description: Contractile effects of the test compounds in isolated guinea pig ileum
# Male Hartley guinea-pigs weighing about 450 g were sacrificed and the ileum was excised. Then intact strips 1.5-2.0 cm long were prepared. These preparations were suspended vertically in an organ bath filled with Krebs-Henseleit's solution at 37° C. which was gassed with 95% O2 and 5% CO2. Rhythmic contractions of the preparations were isotonically measured. Effects of the test compounds were assessed as the relative percentage of a test compound against 10^-6 M acetylcholine-induced contractions. Results were as follows (Table 1).
# *The dose which evoked 50% of the acetylcholineinduced contraction.
EC50 [4] [nM],Compound,LD50 [1] [mg/kg],further results
300,"COc1ccc(S(=O)(=O)N(C)C)cc1C(=O)NCc1ccc(OCCN(C)C)cc1 [Compound 7, N-[4-[2-(Dimethylamino)ethoxy]benzyl]-5-dimethylaminosulfonyl 2-methoxybenzamide]",–,–
690,COc1cc(OC)cc(C(=O)NCc2ccc(OCCN(C)C)cc2)c1 [Compound 14],–,–
–,"COc1ccc(C(=O)NCc2ccc(OCCN3CCCC3)cc2)cc1OC [Compound 18, 3,4-Dimethoxy-N-[4-[2-(1-pyrrolidinyl)ethoxy]benzyl]benzamide]",–,Improvement (%) [2]: 71.7%; Gastrointestinal transit (% ± S.E.) [2]: 43.0 ± 6.5%
500,CN(C)CCOc1ccc(CNC(=O)c2ccccc2)cc1 [Compound 20],–,–
610,COc1ccc(C(=O)NCc2ccc(OCCN(C)C)cc2)cc1 [Compound 24],–,–
340,CNS(=O)(=O)c1ccc(OC)c(C(=O)NCc2ccc(OCCN(C)C)cc2)c1 [Compound 36],–,–
180,COc1ccc(S(N)(=O)=O)cc1C(=O)NCc1ccc(OCCN2CCCC2)cc1 [Compound 37],–,–
350,COc1ccc(S(N)(=O)=O)cc1C(=O)NCc1ccc(OCCN2CCCCC2)cc1 [Compound 38],–,–
390,CN(C)CCOc1ccc(CNC(=O)c2ccc(Cl)c(S(=O)(=O)N(C)C)c2)cc1 [Compound 39],–,–
600,CN(C)S(=O)(=O)c1cc(C(=O)NCc2ccc(OCCN3CCCC3)cc2)ccc1Cl [Compound 40],–,–
130,COc1cc(N)c(S(N)(=O)=O)cc1C(=O)NCc1ccc(OCCN(C)C)cc1 [Compound 41],–,–
< 100,CNS(=O)(=O)c1ccc(OC)c(C(=O)NCc2ccc(OCCN3CCCC3)cc2)c1 [Compound 43],–,–
4600,CN(C)CCOc1ccc(CNC(=O)c2cccc(Cl)c2)cc1 [Compound 45],–,–
450,CN(C)CCOc1ccc(CNC(=O)c2ccc([N+](=O)[O-])cc2)cc1 [Compound 52],–,–
1300,CN(C)CCOc1ccc(CNC(=O)c2ccc(N(C)C)cc2)cc1 [Compound 55],–,–
320,Cc1ccc(C(=O)NCc2ccc(OCCN3CCCC3)cc2)cc1 [Compound 56],–,–
930,N#Cc1ccc(C(=O)NCc2ccc(OCCN3CCCC3)cc2)cc1 [Compound 57],–,–
420,O=C(NCc1ccc(OCCN2CCCC2)cc1)c1cccc([N+](=O)[O-])c1 [Compound 58],–,–
620,CN(C)CCOc1ccc(CNC(=O)c2ccc(Cl)cc2Cl)cc1 [Compound 59],–,–
390,Cc1cc(C(=O)NCc2ccc(OCCN(C)C)cc2)ccc1[N+](=O)[O-] [Compound 62],–,–
500,Cc1cc(C(=O)NCc2ccc(OCCN3CCCC3)cc2)ccc1[N+](=O)[O-] [Compound 63],–,–
–,"NCCc1ccc(O)c(O)c1 [Dopamine, dopamine]",–,"Gastrointestinal transit (% ± S.E.), dopamine alone ([2]; dopamine alone 2 mg/kg i.p., no test compound (model control group)): 25.0 ± 3.4% and 35.9 ± 2.1% and 32.9 ± 3.1% and 32.1 ± 2.0% and 31.7 ± 3.2%"
6300,"CCN(CC)CCNC(=O)c1cc(Cl)c(N)cc1OC [Metoclopramide HCl, 4-Amino-5-chloro-N-[(2-diethylamino)ethyl]-2-methoxybenzamide]",–,improvement of gastrointestinal transit inhibited by dopamine (in words) [2]: did not so only to a much lesser extent; Improvement (%) [2]: 27.1%; Gastrointestinal transit (% ± S.E.) [2]: 37.2 ± 3.2%; antiemetic effect ([3]; 1 mg/kg p.o.): significant antiemetic effect
1500,"COc1cc(C(=O)NCc2ccc(OCCN(C)C)cc2)cc(OC)c1OC [Trimethobenzamide HCl, N-[4-[2-(dimethylamino)ethoxy]benzyl]-3,4,5-trimethoxybenzamide]",–,improvement of gastrointestinal transit inhibited by dopamine (in words) [2]: did not so only to a much lesser extent; Improvement (%) [2]: 32.4%; Gastrointestinal transit (% ± S.E.) [2]: 38.2 ± 3.8%; antiemetic effect ([3]; 30 mg/kg p.o.): significant antiemetic effect

Compound,EC50 [4] [nM],LD50 [1] [mg/kg],further results
"COc1ccc(C(=O)NCc2ccc(OCCN(C)C)cc2)cc1OC.Cl [Compound 2, N-[4-[2-(Dimethylamino)ethoxy]benzyl]-3,4-dimethoxybenzamide hydrochloride]",600,191,"Improvement (%) [2]: 56.5%; Gastrointestinal transit (% ± S.E.) [2]: 43.9 ± 2.8%; antiemetic effect ([3]; 30 mg/kg p.o.): slight antiemetic effect; times stronger contractile effect than metoclopramide.HCl ([4]; isolated guinea pig ileum, compared with metoclopramide.HCl): about 10 times; times stronger contractile effect than trimethobenzamide.HCl ([4]; isolated guinea pig ileum, compared with trimethobenzamide.HCl): about 2.5 times"
"O=C(NCc1ccc(OCCN2CCCC2)cc1)c1ccc2c(c1)OCO2 [Compound 3, 3,4-Methylenedioxy-N-[4-[2-(1-pyrrolidinyl)ethoxy]benzyl]benzamide]",460,62.6,Improvement (%) [2]: 56.9%; Gastrointestinal transit (% ± S.E.) [2]: 44.0 ± 4.7%
"COc1cc(N)c(Cl)cc1C(=O)NCc1ccc(OCCN(C)C)cc1 [Compound 5, 4-Amino-5-chloro-N-[4-[2-(dimethylamino)ethoxy]benzyl]-2-methoxybenzamide]",180,94,–
"COc1ccc(S(N)(=O)=O)cc1C(=O)NCc1ccc(OCCN(C)C)cc1 [Compound 6, N-[4-[2-(Dimethylamino)ethoxy]benzyl]-2-methoxy-5-sulfamoylbenzamide]",400,39.2,–
"CN(C)CCOc1ccc(CNC(=O)c2ccc(S(N)(=O)=O)cc2)cc1 [Compound 8, N-[4-[2-(Dimethylamino)ethoxy]benzyl]-4-sulfamoylbenzamide]",1600,85.1,–
COc1ccc(C(=O)NCc2ccc(OCCN3CCCCC3)cc2)cc1OC [Compound 19],420,70.8,–
COc1cccc(C(=O)NCc2ccc(OCCN(C)C)cc2)c1 [Compound 23],300,74.1,–
CCOc1ccc(C(=O)NCc2ccc(OCCN(C)C)cc2)cc1 [Compound 25],680,87.1,–
"CCOc1ccc(C(=O)NCc2ccc(OCCN(C)C)cc2)cc1OC [Compound 31, N-[4-[2-(dimethylamino)ethoxy]benzyl]-4-ethoxy-3-methoxybenzamide]",420,105,Improvement (%) [2]: 58.5%; Gastrointestinal transit (% ± S.E.) [2]: 45.2 ± 3.0%
CCOc1ccc(C(=O)NCc2ccc(OCCN(C)C)cc2)cc1OCC [Compound 32],140,112,–
"COc1cc(N)c(Cl)cc1C(=O)NCc1ccc(OCCN2CCCC2)cc1 [Compound 34, 4-amino-5-chloro-2-methoxy-N-[4-[2-(1-pyrrolidinyl)ethoxy]benzyl] benzamide]",120,44.7,Improvement (%) [2]: 63.4%; Gastrointestinal transit (% ± S.E.) [2]: 46.6 ± 3.4%
COc1cc(N)c(Cl)cc1C(=O)NCc1ccc(OCCN2CCCCC2)cc1 [Compound 35],490,61.7,–
Cc1cccc(C(=O)NCc2ccc(OCCN(C)C)cc2)c1 [Compound 47],3000,68.5,–
Cc1ccc(C(=O)NCc2ccc(OCCN(C)C)cc2)cc1 [Compound 48],510,83.2,–
CN(C)CCOc1ccc(CNC(=O)c2cccc([N+](=O)[O-])c2)cc1 [Compound 51],610,85.9,–
CN(C)CCOc1ccc(CNC(=O)c2ccc(C#N)cc2)cc1 [Compound 53],460,77.6,–
